Results on 4 molecules are retold here after US10526327B2, “Histone demethylase inhibitors” (CELGENE QUANTICEL RESEARCH, INC., priority 2013, dated 2020).

One experiment deals with T1, Jarid1B (Homo sapiens, UniProt Q9UGL1).
T1 construct: purchased BPS Bioscience or custom made by MolecularThroughput 50121
T1 sequence (Q9UGL1 2-751): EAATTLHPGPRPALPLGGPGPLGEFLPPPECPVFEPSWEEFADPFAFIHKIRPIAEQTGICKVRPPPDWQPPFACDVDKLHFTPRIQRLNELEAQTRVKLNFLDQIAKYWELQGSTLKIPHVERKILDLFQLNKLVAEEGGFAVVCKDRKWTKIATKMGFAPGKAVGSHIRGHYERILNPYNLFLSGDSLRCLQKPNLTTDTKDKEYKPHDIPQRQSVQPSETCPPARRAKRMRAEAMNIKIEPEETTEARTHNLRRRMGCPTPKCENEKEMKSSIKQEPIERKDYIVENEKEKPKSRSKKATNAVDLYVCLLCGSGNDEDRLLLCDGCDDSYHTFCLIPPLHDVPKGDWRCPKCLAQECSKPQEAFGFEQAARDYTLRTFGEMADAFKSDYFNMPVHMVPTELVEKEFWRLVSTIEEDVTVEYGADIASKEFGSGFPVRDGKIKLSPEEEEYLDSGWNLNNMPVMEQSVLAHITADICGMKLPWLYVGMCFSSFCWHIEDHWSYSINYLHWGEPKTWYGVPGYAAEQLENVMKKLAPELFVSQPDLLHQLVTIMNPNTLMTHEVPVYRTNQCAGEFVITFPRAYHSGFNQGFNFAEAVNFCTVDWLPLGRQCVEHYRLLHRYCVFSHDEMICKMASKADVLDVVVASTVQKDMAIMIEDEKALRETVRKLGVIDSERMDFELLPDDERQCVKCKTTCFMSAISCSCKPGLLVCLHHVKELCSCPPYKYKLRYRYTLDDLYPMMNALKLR
Description: Jarid1B in vitro enzyme inhibition assay (TR-FRET). The class given is biochemical. The essentials: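 Jarid1B (AA 2-751, baculovirus-expressed) at 0.8 nM with 300 nM biotin-H3K4me3 peptide and 2 μM α-ketoglutarate in HEPES pH 7.3 with ascorbate and Fe(II), 30 min at room temperature. Stopped with EDTA; H3K4me1-2 product detected by TR-FRET (665/615 ratio) and IC50 fitted from 11-point dilutions.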
(In TR-FRET formats the signal depends on donor and acceptor labels being close together.)

A further experiment has as its target T2, JMJD2C (Homo sapiens, UniProt Q9H3R0).
T2 construct: purchased BPS Bioscience 50105
T2 sequence (Q9H3R0 2-372): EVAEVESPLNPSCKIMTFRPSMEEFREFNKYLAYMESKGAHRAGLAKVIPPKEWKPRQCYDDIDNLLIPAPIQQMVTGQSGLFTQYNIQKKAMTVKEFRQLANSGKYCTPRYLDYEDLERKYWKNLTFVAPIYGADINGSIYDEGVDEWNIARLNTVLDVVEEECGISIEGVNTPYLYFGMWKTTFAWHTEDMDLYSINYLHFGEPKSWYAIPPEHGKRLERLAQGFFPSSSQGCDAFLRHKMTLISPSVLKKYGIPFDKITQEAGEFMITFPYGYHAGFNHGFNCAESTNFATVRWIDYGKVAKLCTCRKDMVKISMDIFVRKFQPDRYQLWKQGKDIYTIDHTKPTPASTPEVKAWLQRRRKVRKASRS
Description: JMJD2C in vitro enzyme inhibition assay (TR-FRET). The class given is biochemical. The essentials:
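Baculovirus-expressed human JMJD2C (AA 2-372) at 0.3 nM demethylated 300 nM biotin-H3K9me3 peptide with 2 μM alpha-ketoglutarate in HEPES pH 7.3 containing ascorbate and Fe(II), 30 min at room temperature. EDTA-stopped product was read by TR-FRET with Eu-anti-H3K9me2 and streptavidin-APC; 665/615 ratios from 11-point dilutions gave IC50.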

In the case of `Oc1nc(OCC2CCOc3ccccc32)nc2cnccc12` (centres unmarked) [Example 195, 2-(3,4-dihydro-2H-1-benzopyran-4-ylmethoxy)pyrido[3,4-d]pyrimidin-4-ol], the values for the IC50 on Jarid1B and at JMJD2C were 100 to 1000 nM and at most 100 nM, respectively.
Take `Oc1nc(OC2CCCc3ccccc32)nc2cnccc12` (centres unmarked) [Example 196, 2-(1,2,3,4-tetrahydronaphthalen-1-yloxy)pyrido[3,4-d]pyrimidin-4-ol]: the IC50 against Jarid1B and against JMJD2C was 1000 to 10000 nM throughout.
As to `Oc1nc(OC2CCOc3ccccc32)nc2cnccc12` (centres unmarked) [Example 197, 2-(3,4-dihydro-2H-1-benzopyran-4-yloxy)pyrido[3,4-d]pyrimidin-4-ol], the values for the IC50 on Jarid1B and against JMJD2C were 100 to 1000 nM and at most 100 nM, respectively.
Regarding `Cn1cnc(-c2nccc3c(=O)[nH]cnc23)c1` [Example 198, 8-(1-methylimidazol-4-yl)-3H-pyrido[3,4-d]pyrimidin-4-one], the IC50 at Jarid1B and at JMJD2C was 100 to 1000 nM throughout.
